Laboratory results reported in ChEMBL document CHEMBL5390322, “Discovery of 5-Azaquinoxaline Derivatives as Potent and Orally Bioavailable Allosteric SHP2 Inhibitors” (ACS Med Chem Lett, 2023).
Values after ≈ are worked out from the molar mass of the structure shown.

Tests used:
[1] = Permeability of compound from apical to basolateral side in LLC-PK1 cells incubated for 2 hrs by LC-MS/MS analysis; type: ADME, cell-based, Sus scrofa; settings: pig, read-out: permeability
[2] = Metabolic stability in human liver microsome assessed as intrinsic clearance at […] preincubated for 5 mins followed by NADPH addition and measured after 20 mins by LC-MS analysis; type: ADME; settings: liver microsomes, dose 2.5 µM, time 25 min, read-out: CLH
[3] = Metabolic stability in mouse liver microsome assessed as intrinsic clearance at […] preincubated for 5 mins followed by NADPH addition and measured after 20 mins by LC-MS analysis; type: ADME; settings: liver microsomes, dose 2.5 µM, time 25 min, read-out: CLH
[4] = Metabolic stability in human hepatocyte assessed as intrinsic clearance incubated for 1 to 2 hrs by LC-MS analysis; type: ADME, cell-based; settings: hepatocytes, time 1-2 hrs, read-out: CLH
[5] = Solubility of the compound in FaSSIF at 1 mg/ml incubated for 24 hrs by LC-MS/MS analysis; type: physicochemical
[6] = Metabolic stability in mouse hepatocyte assessed as intrinsic clearance incubated for 1 to 2 hrs by LC-MS analysis; type: ADME, cell-based; settings: hepatocytes, time 1-2 hrs, read-out: CLH
[7] = molecular target: T1, Mitogen-activated protein kinase; ERK1/ERK2 (Homo sapiens, UniProt P27361+P28482); assay: Inhibition of ERK1/2 phosphorylation at Thr202/Tyr204 residues in human KYSE520 cells incubated for 1 hrs by Western blot analysis; type: cell-based
[8] = molecular target: T2, Tyrosine-protein phosphatase non-receptor type 11 (Homo sapiens, UniProt Q06124); assay: Allosteric inhibition of recombinant full length 6His-tagged SHP2 (2 to 527 residues) (unknown origin) expressed in Escherichia coli using DiFMUP as substrate incubated for 15 mins by microplate reader analysis
T2 sequence (Q06124 whole entry): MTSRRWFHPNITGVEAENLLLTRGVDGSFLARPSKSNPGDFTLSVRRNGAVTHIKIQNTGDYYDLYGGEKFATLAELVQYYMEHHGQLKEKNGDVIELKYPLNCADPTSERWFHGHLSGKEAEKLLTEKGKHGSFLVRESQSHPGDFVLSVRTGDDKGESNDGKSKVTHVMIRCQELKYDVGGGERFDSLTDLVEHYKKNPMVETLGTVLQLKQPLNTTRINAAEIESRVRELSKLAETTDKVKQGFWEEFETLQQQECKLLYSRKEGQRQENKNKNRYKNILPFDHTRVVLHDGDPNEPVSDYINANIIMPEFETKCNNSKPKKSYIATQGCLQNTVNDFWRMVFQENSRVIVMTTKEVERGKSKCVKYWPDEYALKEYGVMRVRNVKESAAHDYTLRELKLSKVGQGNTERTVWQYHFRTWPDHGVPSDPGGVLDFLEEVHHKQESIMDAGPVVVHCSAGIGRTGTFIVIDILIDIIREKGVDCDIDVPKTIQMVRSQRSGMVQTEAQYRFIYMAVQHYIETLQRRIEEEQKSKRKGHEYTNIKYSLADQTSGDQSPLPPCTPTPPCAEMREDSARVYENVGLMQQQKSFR

[9] = AUClast in CD-1 mouse at 10 mg/kg, po measured upto 24 hrs by LC-MS/MS method; type: ADME, organism-based; parameters: time < 24 hrs, dose 10 mg/kg, route po; settings: in vivo
[10] = Oral bioavailability in CD-1 mouse at 10 mg/kg measured upto 24 hrs by LC-MS/MS method; type: ADME, organism-based; settings: in vivo
[11] = molecular target: T1, Mitogen-activated protein kinase; ERK1/ERK2; settings: KYSE520, time 1.0 hrs
[12] = molecular target: T1, Mitogen-activated protein kinase; ERK1/ERK2; settings: KYSE520, time 1.0 hrs; remark: listed apart in the source
[13] = Half life in CD-1 mouse at 1 mg/kg, iv measured upto 8 hrs by LC-MS/MS method; type: ADME, organism-based; settings: in vivo
[14] = Cmax in CD-1 mouse at 10 mg/kg, po measured upto 24 hrs by LC-MS/MS method; type: ADME, organism-based; parameters: dose 10 mg/kg, time < 24 hrs, route po; settings: in vivo
[15] = Clearance in CD-1 mouse at 1 mg/kg, iv measured upto 8 hrs by LC-MS/MS method; type: ADME, organism-based; settings: in vivo
[16] = Tmax in CD-1 mouse at 10 mg/kg, po measured upto 24 hrs by LC-MS/MS method; type: ADME, organism-based; settings: in vivo
[17] = Volume of distribution at steady state in CD-1 mouse at 1 mg/kg, iv measured upto 8 hrs by LC-MS/MS method; type: ADME, organism-based; settings: in vivo, read-out: Vdss

T1 sequence (P27361 whole entry, looked up, the tested form may be a part): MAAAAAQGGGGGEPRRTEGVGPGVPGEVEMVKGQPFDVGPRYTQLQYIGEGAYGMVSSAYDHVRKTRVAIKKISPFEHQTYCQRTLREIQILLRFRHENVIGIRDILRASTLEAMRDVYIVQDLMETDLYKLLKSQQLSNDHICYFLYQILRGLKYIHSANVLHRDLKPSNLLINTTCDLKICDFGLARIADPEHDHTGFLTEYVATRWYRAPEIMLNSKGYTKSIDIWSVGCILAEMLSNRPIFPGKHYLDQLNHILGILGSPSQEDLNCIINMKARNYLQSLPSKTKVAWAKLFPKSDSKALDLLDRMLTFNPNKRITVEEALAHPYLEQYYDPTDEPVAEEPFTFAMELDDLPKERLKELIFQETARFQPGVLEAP
T1 sequence (P28482 whole entry, looked up, the tested form may be a part): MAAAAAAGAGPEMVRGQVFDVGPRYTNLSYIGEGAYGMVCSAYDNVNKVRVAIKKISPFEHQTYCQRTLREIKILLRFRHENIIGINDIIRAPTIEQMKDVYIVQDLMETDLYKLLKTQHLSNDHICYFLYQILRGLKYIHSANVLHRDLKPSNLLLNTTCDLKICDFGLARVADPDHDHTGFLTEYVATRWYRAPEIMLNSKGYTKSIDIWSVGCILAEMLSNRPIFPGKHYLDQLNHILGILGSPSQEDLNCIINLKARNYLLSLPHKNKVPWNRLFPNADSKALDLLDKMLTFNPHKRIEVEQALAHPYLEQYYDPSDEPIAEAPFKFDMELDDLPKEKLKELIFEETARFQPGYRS

Nc1nccc(Sc2ccc3nc(N4[C@H]5CC[C@H]4CC(N)C5)cnc3n2)c1Cl (stereo partly specified)
Papp A→B at 2 h [1]: 3 ×10⁻⁶ cm/s
CLint scaled at […] [2]: 3 mL/min/kg
CLint scaled at […] [3]: 18 mL/min/kg
CLint scaled at 10000 µM [4]: 2 mL/min/kg
solubility at 24 h [5]: 1000 µg/mL (≈ 2420 µM)
CLint scaled [6]: 17 mL/min/kg
IC50 [7]: 28 nM

Nc1nccc(Sc2ccc3nc(N4C[C@H]5C[C@@H](C4)[C@H]5N)cnc3n2)c1Cl
Papp A→B at 2 h [1]: 14 ×10⁻⁶ cm/s
CLint scaled at […] [2]: 4 mL/min/kg
CLint scaled at […] [3]: 28 mL/min/kg
CLint scaled at 10000 µM [4]: 5 mL/min/kg
CLint scaled [6]: 23 mL/min/kg
IC50 [7]: 227 nM

Cc1ccc2c(n1)CC1(CCN(c3cnc4nc(Sc5ccnc(N)c5Cl)ccc4n3)CC1)[C@@H]2N
Papp A→B at 2 h [1]: 10 ×10⁻⁶ cm/s
CLint scaled at […] [2]: 14 mL/min/kg
CLint scaled at […] [3]: 41 mL/min/kg
CLint scaled at 10000 µM [4]: 15 mL/min/kg
CLint scaled [6]: 35 mL/min/kg
IC50 [7]: 17 nM

Nc1nccc(Sc2ccc3nc(N4CCC5(CC4)Cc4ccccc4[C@H]5N)cnc3n2)c1Cl
Papp A→B at 2 h [1]: 1 ×10⁻⁶ cm/s
CLint scaled at […] [2]: 8 mL/min/kg
CLint scaled at […] [3]: 19 mL/min/kg
CLint scaled at 10000 µM [4]: 10 mL/min/kg
solubility at 24 h [5]: 60 µg/mL (≈ 122 µM)
CLint scaled [6]: 34 mL/min/kg
IC50 [7]: 8 nM

Nc1nccc(Sc2ccc3nc(N4CCC5(CC4)Cc4ncc(F)cc4[C@H]5N)cnc3n2)c1Cl
Papp A→B at 2 h [1]: 9 ×10⁻⁶ cm/s
CLint scaled at […] [2]: 13 mL/min/kg
CLint scaled at […] [3]: 47 mL/min/kg
CLint scaled at 10000 µM [4]: 12 mL/min/kg
CLint scaled [6]: 26 mL/min/kg
IC50 [7]: 6 nM

Nc1nccc(Sc2ccc3nc(N4CCC5(CC4)Cc4cc(Cl)ccc4[C@H]5N)cnc3n2)c1Cl
IC50 [8]: 35 nM
solubility at 24 h [5]: 24 µg/mL (≈ 45.8 µM)
IC50 [7]: 78 nM

CC1(N)CCN(c2cnc3nc(Oc4cccc(Cl)c4Cl)ccc3n2)CC1
Papp A→B at 2 h [1]: 11 ×10⁻⁶ cm/s
CLint scaled at […] [2]: 4 mL/min/kg
CLint scaled at […] [3]: 18 mL/min/kg
CLint scaled at 10000 µM [4]: 2 mL/min/kg
CLint scaled [6]: 10 mL/min/kg
IC50 [7]: 767 nM

Nc1nccc(Sc2ccc3nc(N4CCC[C@H](N)CC4)cnc3n2)c1Cl
Papp A→B at 2 h [1]: 1 ×10⁻⁶ cm/s
IC50 [8]: 102 nM
CLint scaled at […] [2]: 4 mL/min/kg
CLint scaled at […] [3]: 19 mL/min/kg
CLint scaled at 10000 µM [4]: 3 mL/min/kg
CLint scaled [6]: 8 mL/min/kg
IC50 [7]: 84 nM

Nc1nccc(Sc2ccc3nc(N4CCC5(CC4)C[C@@H](O)C[C@H]5N)cnc3n2)c1Cl
Papp A→B at 2 h [1]: 1 ×10⁻⁶ cm/s
CLint scaled at […] [3]: 10 mL/min/kg
CLint scaled at 10000 µM [4]: 8 mL/min/kg
CLint scaled [6]: 31 mL/min/kg
IC50 [7]: 142 nM

CC1(N)CCN(c2cnc3c(Sc4cccc(Cl)c4Cl)cnn3c2)CC1
IC50 [8]: 634 nM
IC50 [7]: > 20000 nM

CC1(N)CCN(c2cnc3nc(Sc4cccn5nccc45)ccc3n2)CC1
Papp A→B at 2 h [1]: 14 ×10⁻⁶ cm/s
IC50 [7]: 1388 nM

CC1(N)CCN(c2cnc(-c3cccc(Cl)c3Cl)c(N)n2)CC1
IC50 [7]: 254 nM

C[C@@H]1OCC2(CCN(c3cnc4nc(Sc5ccnc(N)c5Cl)ccc4n3)CC2)[C@@H]1N
Papp A→B at 2 h [1]: 13 ×10⁻⁶ cm/s
IC50 [8]: 72 nM
AUC(0-t) at 24 h [9]: 2820 ng·h/mL
bioavailability [10]: 58.1%
CLint scaled at […] [2]: 3 mL/min/kg
CLint scaled at […] [3]: 24 mL/min/kg
fIC50 [11]: 0.244 µg/mL
fIC90 [11]: 2.2 µg/mL
fIC50 [12]: 0.244 µg/mL
fIC90 [12]: 2.2 µg/mL
CLint scaled at 10000 µM [4]: 5 mL/min/kg
half-life [13]: 1.48 h
Cmax [14]: 533 ng/mL
solubility at 24 h [5]: 894 µg/mL (≈ 1950 µM)
clearance [15]: 34.3 mL/min/kg
CLint scaled [6]: 16 mL/min/kg
Tmax [16]: 2 h
Vd [17]: 3.46 L/kg
IC50 [7]: 58 nM

CC1(CN)CCN(c2cnc3nc(Sc4ccnc(N)c4Cl)ccc3n2)CC1
Papp A→B at 2 h [1]: 10 ×10⁻⁶ cm/s
CLint scaled at […] [2]: 5 mL/min/kg
CLint scaled at […] [3]: 14 mL/min/kg
CLint scaled at 10000 µM [4]: 2 mL/min/kg
solubility at 24 h [5]: 909 µg/mL (≈ 2190 µM)
CLint scaled [6]: 16 mL/min/kg
IC50 [7]: 68 nM

CC1(N)CCN(c2cnc3nc(Sc4cccc(C#N)c4Cl)ccc3n2)CC1
Papp A→B at 2 h [1]: 9 ×10⁻⁶ cm/s
CLint scaled at […] [2]: 9 mL/min/kg
CLint scaled at […] [3]: 23 mL/min/kg
CLint scaled at 10000 µM [4]: 7 mL/min/kg
CLint scaled [6]: 12 mL/min/kg
IC50 [7]: 991 nM

CC1(N)CCN(c2cnc3cc(-c4cccc(Cl)c4Cl)ccc3n2)CC1
IC50 [7]: > 20000 nM
